Our source for the IC50 and Ratio IC50 values is ChEMBL document CHEMBL1137565, “Discovery of novel 8-azoniabicyclo[3.2.1]octane carbamates as muscarinic acetylcholine receptor antagonists” (Bioorg Med Chem Lett, 2007).

Molecules are shown by their SMILES.

For orientation: IC50 means the midpoint of a concentration-inhibition curve.

Test [1] concerns the target Muscarinic acetylcholine receptor M3 (Homo sapiens, UniProt P20309). The experiment in a line: Antagonist activity at cloned muscarinic M3 receptor expressed in CHO cells by measuring calcium mobilization. It counts as functional, cell-based.
The target of test [2] is T1, Muscarinic acetylcholine receptor M1 (Homo sapiens, UniProt P11229).
T1 sequence (P11229 whole entry): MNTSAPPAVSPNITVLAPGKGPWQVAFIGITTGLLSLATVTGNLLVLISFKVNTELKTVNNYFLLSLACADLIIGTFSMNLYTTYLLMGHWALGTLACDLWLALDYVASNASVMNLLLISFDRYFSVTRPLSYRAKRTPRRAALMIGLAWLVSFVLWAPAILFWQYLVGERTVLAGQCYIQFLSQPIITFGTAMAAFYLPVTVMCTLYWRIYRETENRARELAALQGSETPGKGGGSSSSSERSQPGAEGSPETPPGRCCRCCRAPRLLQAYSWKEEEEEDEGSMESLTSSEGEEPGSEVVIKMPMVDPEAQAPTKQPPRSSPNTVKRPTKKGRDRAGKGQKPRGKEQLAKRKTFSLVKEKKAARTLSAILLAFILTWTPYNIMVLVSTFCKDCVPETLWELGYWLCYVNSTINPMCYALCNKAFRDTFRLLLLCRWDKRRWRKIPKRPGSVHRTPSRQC
The experiment in a line: Antagonist activity at cloned muscarinic M1 receptor expressed in CHO cells by measuring calcium mobilization. Format: functional, cell-based. In general terms: A change in cytosolic calcium serves as a functional read-out for many receptors and channels.

The target of test [3] is Muscarinic acetylcholine receptors; M2 & M3 (Homo sapiens) (UniProt P20309+P08172). Description: Selectivity for cloned muscarinic M3 receptor over cloned muscarinic M2 receptor.
Test [4] concerns the target Muscarinic acetylcholine receptor M1 and M3 (Homo sapiens) (UniProt P20309+P11229). Description: Selectivity for cloned muscarinic M3 receptor over cloned muscarinic M1 receptor.
Test [5] has as its target T2, Muscarinic acetylcholine receptor M2 (Homo sapiens, UniProt P08172).
T2 sequence (P08172 whole entry): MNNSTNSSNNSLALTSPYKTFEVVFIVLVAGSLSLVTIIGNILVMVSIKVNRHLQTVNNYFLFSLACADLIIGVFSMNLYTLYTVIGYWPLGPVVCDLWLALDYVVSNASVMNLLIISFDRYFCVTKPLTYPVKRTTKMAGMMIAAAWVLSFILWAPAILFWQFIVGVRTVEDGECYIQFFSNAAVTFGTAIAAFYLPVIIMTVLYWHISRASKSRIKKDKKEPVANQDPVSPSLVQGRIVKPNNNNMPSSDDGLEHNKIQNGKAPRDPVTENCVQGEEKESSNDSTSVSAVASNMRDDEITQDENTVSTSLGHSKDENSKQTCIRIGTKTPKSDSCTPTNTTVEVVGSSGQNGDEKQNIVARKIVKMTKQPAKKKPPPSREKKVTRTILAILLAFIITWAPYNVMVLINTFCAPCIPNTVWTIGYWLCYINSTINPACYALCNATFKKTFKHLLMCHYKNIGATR
Description: Antagonist activity at cloned muscarinic M2 receptor expressed in CHO cells by measuring calcium mobilization. Format: functional, cell-based.

Chain of Muscarinic acetylcholine receptor M1 and M3 (Homo sapiens) (P20309 whole entry, looked up, one chain of several): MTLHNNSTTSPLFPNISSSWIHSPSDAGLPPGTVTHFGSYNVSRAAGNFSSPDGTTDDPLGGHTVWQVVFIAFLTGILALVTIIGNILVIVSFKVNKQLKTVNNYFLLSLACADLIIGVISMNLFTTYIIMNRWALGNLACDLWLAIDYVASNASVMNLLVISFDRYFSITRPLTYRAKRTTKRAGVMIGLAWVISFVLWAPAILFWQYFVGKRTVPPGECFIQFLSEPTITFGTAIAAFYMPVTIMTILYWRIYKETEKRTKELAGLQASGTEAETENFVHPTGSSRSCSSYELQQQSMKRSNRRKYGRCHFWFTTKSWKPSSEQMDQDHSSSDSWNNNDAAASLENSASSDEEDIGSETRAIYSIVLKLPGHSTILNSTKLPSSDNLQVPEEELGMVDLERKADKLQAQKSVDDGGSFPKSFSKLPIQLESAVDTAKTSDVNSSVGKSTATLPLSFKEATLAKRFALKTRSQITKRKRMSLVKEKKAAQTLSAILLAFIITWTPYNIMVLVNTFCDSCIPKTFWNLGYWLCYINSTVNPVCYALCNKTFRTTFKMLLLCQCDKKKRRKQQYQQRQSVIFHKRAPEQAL
Chain of Muscarinic acetylcholine receptor M3 (P20309 whole entry): as the sequence (P20309 whole entry, looked up, one chain of several) above

As to `C[N+]1(C)[C@@H]2CC[C@H]1C[C@@H](OC(=O)N(Cc1cccc(C#N)c1)c1ccsc1)C2`, the IC50 in test [1] was 137 nM; in test [2], 55.6 nM; in test [5], 638 nM. Besides, the results for the Ratio IC50 in test [3] and in test [4] were 4.7 and 0.4, respectively.

With `CN1[C@@H]2CC[C@H]1C[C@@H](OC(=O)N(Cc1ccccc1Br)c1ccccc1)C2`, the half-inhibitory concentration (IC50) was 1140 nM in test [1], 1390 nM in test [2] and 1400 nM in test [5]. Besides, the Ratio IC50 in test [3] and in test [4] was 1.2 throughout.

In the case of `COc1cccc(CN(C(=O)O[C@@H]2C[C@H]3CC[C@@H](C2)N3C)c2ccccc2)c1`, the results for the IC50 in test [1], in test [2] and in test [5] were 2140 nM, 1210 nM and 1170 nM, respectively. Further, the Ratio IC50 stood at 0.5 in test [3] and 0.6 in test [4].

With `COc1ccc(CN(C(=O)O[C@H]2C[C@H]3CC[C@@H](C2)N3C)c2ccccc2)cc1`, the values for the 50% inhibitory concentration (IC50) in test [1], in test [2] and in test [5] were 776 nM, 734 nM and 1360 nM, respectively. Besides, the Ratio IC50 in test [3] was 1.8; in test [4] it was 0.9.

In the case of `CN1[C@@H]2CC[C@H]1C[C@H](OC(=O)N(Cc1cccs1)c1ccccc1)C2`, the results for the concentration for half-maximal inhibition (IC50) in test [1], in test [2] and in test [5] were 20.3 nM, 48.3 nM and 38.2 nM, respectively. Besides, the Ratio IC50 in test [3] is 1.9; in test [4] it was 2.4.

Regarding `CN1[C@@H]2CC[C@H]1C[C@@H](OC(=O)N(Cc1cccc(Br)c1)c1ccccc1)C2`, the values for the IC50 in test [1], in test [2] and in test [5] were 2310 nM, 1960 nM and 2160 nM, respectively. The Ratio IC50 in test [3] and in test [4] was 0.9 in each case.

Consider `CN1[C@@H]2CC[C@H]1C[C@@H](OC(=O)N(CC1CCCCC1)c1ccsc1)C2`, for which the IC50 in test [1] was 109 nM; in test [2], 126 nM; in test [5], 271 nM. Moreover, the Ratio IC50 worked out at 2.5 in test [3] and 1.1 in test [4].

For the compound `Cc1ccc(CN(C(=O)O[C@@H]2C[C@H]3CC[C@@H](C2)[N+]3(C)C)c2ccccc2)s1`, the IC50 in test [1] is 21.2 nM; in test [2] it was 15.8 nM; in test [5] it was 60.8 nM. Moreover, the Ratio IC50 amounted to 2.9 in test [3] and 0.8 in test [4].

Take `Cc1ccoc1CN(C(=O)O[C@H]1C[C@H]2CC[C@@H](C1)[N+]2(C)C)c1ccccc1`: the figures for the half-maximal inhibitory concentration (IC50) in test [1], in test [2] and in test [5] were 42.3 nM, 15.2 nM and 229 nM, respectively. Also, the Ratio IC50 in test [3] was determined as 5.4; in test [4], 0.4.

As to `CN1[C@@H]2CC[C@H]1C[C@H](OC(=O)N(Cc1ccccc1)c1cccs1)C2`, the concentration for half-maximal inhibition (IC50) stood at 22.9 nM in test [1], 45.1 nM in test [2] and 26.5 nM in test [5]. In addition, the Ratio IC50 came to 1.2 in test [3] and 2 in test [4].

`C[N+]1(C)[C@@H]2CC[C@H]1C[C@H](OC(=O)N(Cc1ccoc1)c1ccccc1)C2`: the IC50 in test [1] is 16 nM; in test [2], 12.2 nM; in test [5], 53.7 nM. In addition, the values for the Ratio IC50 in test [3] and in test [4] were 3.4 and 0.8, respectively.

Take `C[N+]1(C)[C@@H]2CC[C@H]1C[C@H](OC(=O)N(Cc1ccc(Br)cc1)c1ccccc1)C2`: the IC50 in test [1] amounted to 56.6 nM; in test [2] it was 33.4 nM; in test [5], 400 nM. For the same compound, the Ratio IC50 in test [3] worked out at 7.1; in test [4] it was 0.6.

Consider `CN1[C@@H]2CC[C@H]1C[C@H](OC(=O)N(Cc1ccsc1)c1ccsc1)C2`, for which the half-inhibitory concentration (IC50) in test [1] is 7.2 nM; in test [2], 13.8 nM; in test [5] it was 19.6 nM. Further, the Ratio IC50 in test [3] amounted to 2.7; in test [4], 1.9.

On to `Cc1ccc(CN(C(=O)O[C@@H]2C[C@H]3CC[C@@H](C2)N3C)c2ccccc2)s1`, for which the half-inhibitory concentration (IC50) was 262 nM in test [1], 518 nM in test [2] and 410 nM in test [5]. The Ratio IC50 worked out at 0.4 in test [3] and 2 in test [4].

As to `CN1[C@@H]2CC[C@H]1C[C@H](OC(=O)N(Cc1ccoc1)c1ccccc1)C2`, the half-maximal inhibitory concentration (IC50) turned out to be 57.3 nM in test [1], 84.5 nM in test [2] and 82.5 nM in test [5]. The Ratio IC50 turned out to be 1.4 in test [3] and 1.5 in test [4].

`CN1[C@@H]2CC[C@H]1C[C@@H](OC(=O)N(Cc1ccc(C#N)cc1)c1ccccc1)C2`: the concentration for half-maximal inhibition (IC50) in test [1] came out at 1160 nM; in test [2], 847 nM; in test [5] it was 1350 nM. The Ratio IC50 in test [3] amounted to 1.1; in test [4] it was 0.7.

For the compound `COc1ccc(CN(C(=O)O[C@H]2C[C@H]3CC[C@@H](C2)[N+]3(C)C)c2ccccc2)cc1`, the IC50 stood at 154 nM in test [1], 86 nM in test [2] and 688 nM in test [5]. The Ratio IC50 in test [3] was found to be 4.4; in test [4] it was 0.6.

In the case of `C[N+]1(C)[C@@H]2CC[C@H]1C[C@H](OC(=O)N(Cc1cccc(Br)c1)c1ccccc1)C2`, the IC50 in test [1] was determined as 342 nM; in test [2], 210 nM; in test [5] it was 520 nM. Moreover, the Ratio IC50 is 1.5 in test [3] and 0.6 in test [4].

For `COc1cccc(CN(C(=O)O[C@@H]2C[C@H]3CC[C@@H](C2)[N+]3(C)C)c2ccccc2)c1`, the 50% inhibitory concentration (IC50) in test [1] was 972 nM; in test [2], 612 nM; in test [5], 1000 nM. In addition, the Ratio IC50 in test [3] came to 1; in test [4] it was 0.6.

As to `C[N+]1(C)[C@@H]2CC[C@H]1C[C@H](OC(=O)N(Cc1ccccc1Br)c1ccccc1)C2`, the IC50 in test [1] turned out to be 407 nM; in test [2] it was 420 nM; in test [5], 666 nM. The figures for the Ratio IC50 in test [3] and in test [4] were 1.6 and 1, respectively.

For the compound `Cc1ccoc1CN(C(=O)O[C@@H]1C[C@H]2CC[C@@H](C1)N2C)c1ccccc1`, the values for the 50% inhibitory concentration (IC50) in test [1], in test [2] and in test [5] were 428 nM, 349 nM and 468 nM, respectively. Besides, the Ratio IC50 is 1.1 in test [3] and 0.8 in test [4].

Regarding `CN1[C@@H]2CC[C@H]1C[C@@H](OC(=O)N(Cc1ccc(C#N)cc1)c1ccsc1)C2`, the results for the concentration for half-maximal inhibition (IC50) in test [1], in test [2] and in test [5] were 137 nM, 75.8 nM and 363 nM, respectively. The Ratio IC50 is 2.6 in test [3] and 0.6 in test [4].

Consider `C[N+]1(C)[C@@H]2CC[C@H]1C[C@H](OC(=O)N(CC1CCCCC1)c1ccsc1)C2`, for which the IC50 in test [1] was 11.3 nM; in test [2], 5.8 nM; in test [5], 55.9 nM. Further, the Ratio IC50 in test [3] stood at 5; in test [4], 0.5.

As for `CN1[C@@H]2CC[C@H]1C[C@H](OC(=O)N(Cc1ccc(Br)cc1)c1ccccc1)C2`, the half-maximal inhibitory concentration (IC50) was determined as 721 nM in test [1], 813 nM in test [2] and 1420 nM in test [5]. Also, the Ratio IC50 in test [3] was found to be 2; in test [4], 1.1.

On to `CN1[C@@H]2CC[C@H]1C[C@H](OC(=O)N(Cc1ccccc1)c1ccccc1)C2`, for which the half-maximal inhibitory concentration (IC50) was found to be 74.5 nM in test [1], 161 nM in test [2] and 254 nM in test [5]. The Ratio IC50 in test [3] came out at 3.4; in test [4], 2.2.

Turning to `CN1[C@@H]2CC[C@H]1C[C@@H](OC(=O)N(Cc1ccsc1)c1ccccc1)C2`, the half-inhibitory concentration (IC50) in test [1] was 27.5 nM; in test [2], 73.8 nM; in test [5], 90.7 nM. The Ratio IC50 turned out to be 3.3 in test [3] and 2.7 in test [4].

Consider `Cc1ccsc1CN(C(=O)O[C@H]1C[C@H]2CC[C@@H](C1)N2C)c1ccccc1`, for which the half-inhibitory concentration (IC50) came out at 108 nM in test [1], 117 nM in test [2] and 191 nM in test [5]. Besides, the Ratio IC50 is 1.8 in test [3] and 1.1 in test [4].

Regarding `CN1[C@@H]2CC[C@H]1C[C@H](OC(=O)N(Cc1ccccc1)c1ccsc1)C2`, the IC50 came out at 10.9 nM in test [1], 19.1 nM in test [2] and 39.1 nM in test [5]. Besides, the Ratio IC50 in test [3] turned out to be 3.6; in test [4] it was 1.7.

As to `C[N+]1(C)[C@@H]2CC[C@H]1C[C@@H](OC(=O)N(Cc1ccc(C#N)cc1)c1ccccc1)C2`, the values for the IC50 in test [1], in test [2] and in test [5] were 714 nM, 258 nM and 1490 nM, respectively. Besides, the Ratio IC50 was found to be 2.1 in test [3] and 0.4 in test [4].
